Structures can show the parent of a compound that is named as a salt.
Key:
[1] = Solubility in water and aqueous solution of acetic acid; format: physicochemical; conditions: aqueous solution of 10% (wt/wt) acetic acid at 80° C.
[2] = Solubility of bisulfate salts in 1 M solution of sulfuric acid; format: physicochemical; conditions: for solubility: temperature below 40° C.; for solubility change with temperature: temperature increased from 60° C. to 80° C. and above

Row | solubility [1] | solubility [2] | solubility change with temperature [2] | Compound
1 | up to 45 % (wt/wt) | negligible solubility | drastically increased | NCCCCCCCCCCC(=O)O [11-aminoundecanoic acid]
2 | – | negligible solubility | drastically increased | NCCCCCCCCCCCC(=O)O [bisulfate salt of 12-aminolauric acid, 12-aminolauric acid]

— patent US10329242B2, “Process for purifying long chain amino acids” (VITAWORKS IP, LLC, priority 2017, dated 2019)
